Earlier results on 5 molecules are cited in patent US20220142214A1, “SYNERGISTIC COMPOSITION OF FOOD-BASED AND ORGANIC NUTRIENTS AND METHODS FOR USE AND MANUFACTURE” (priority 2020, published 2022).

Read-outs that look alike come from different tables or passages of the source.

In series [1] the test system is B16-BL6 cells. As to conditions: for tumor growth: intraperitoneal administration at time of i.m. injection of B16-BL6 cells.
In series [2] the test system is B16-BL6 cells. The settings on record: dose-dependent.
Where [3] appears, read: intraperitoneal administration, syngeneic mice.

For the molecule `O=C(O[C@@H]1Cc2c(O)cc(O)cc2O[C@@H]1c1cc(O)c(O)c(O)c1)c1cc(O)c(O)c(O)c1` [EGCG, Epigallocathechin-3-gallate], the tumor growth entry in the series with B16-BL6 cells [1] was “significant, dose-dependent delay of tumor growth”. For the same molecule, the toxicity result in the series with B16-BL6 cells [1] (setting [3]) is “without toxicity”.
Consider `O=c1cc(-c2ccc(O)cc2)oc2cc(O)cc(O)c12` [apigenin], for which the tumor growth entry in the series with B16-BL6 cells [1] was “significant, dose-dependent delay of tumor growth”. Besides, the toxicity entry in the series with B16-BL6 cells [1] (setting [3]) is reported as “without toxicity”. The “number of B16-BL6 colonies in the lungs” value in the series with B16-BL6 cells [2] is “significantly decreased”.
Take `O=c1c(O)c(-c2ccc(O)c(O)c2)oc2cc(O)cc(O)c12` [quercetin]: the tumor growth entry in the series on B16-BL6 cells [1] was “significant, dose-dependent delay of tumor growth”. The toxicity result in the series with B16-BL6 cells [1] (mouse, in vivo, ip) is reported as “without toxicity”. In addition, the “number of B16-BL6 colonies in the lungs” value in the series with B16-BL6 cells [2] is recorded as “significantly decreased”.
`Oc1ccc(C=Cc2cc(O)cc(O)c2)cc1` [resveratrol]: the tumor growth result in the series with B16-BL6 cells [1] is “significant, dose-dependent delay of tumor growth”. In addition, the toxicity result in the series on B16-BL6 cells [1] (mouse, in vivo, ip) is given as “without toxicity”.
Consider `CC/C(=C(\c1ccccc1)c1ccc(OCCN(C)C)cc1)c1ccccc1` [tamoxifen], for which the tumor growth entry in the series with B16-BL6 cells [1] is on record as “significant, dose-dependent delay of tumor growth”. Besides, in the series with B16-BL6 cells [1] (mouse, in vivo, ip), the toxicity result was “without toxicity”. Besides, the “number of B16-BL6 colonies in the lungs” value with B16-BL6 cells [2] is “significantly decreased”.
